Measurements taken from PMC8142146 (Bioorganic chemistry, 2020).

What was measured:
Experiment in all cases: PARP-isoform screening, Chemiluminescent Activity Assay Kit
Format in all cases: biochemical
PARP2 = PARP2 (Homo sapiens, UniProt Q9UGN5); conditions: at 0.5 μM concentration
TNKS1 (PARP5A) = target: T1, TNKS1 (PARP5A) (Homo sapiens, UniProt O95271); conditions: Figure 5
T1 sequence (O95271 1-1327): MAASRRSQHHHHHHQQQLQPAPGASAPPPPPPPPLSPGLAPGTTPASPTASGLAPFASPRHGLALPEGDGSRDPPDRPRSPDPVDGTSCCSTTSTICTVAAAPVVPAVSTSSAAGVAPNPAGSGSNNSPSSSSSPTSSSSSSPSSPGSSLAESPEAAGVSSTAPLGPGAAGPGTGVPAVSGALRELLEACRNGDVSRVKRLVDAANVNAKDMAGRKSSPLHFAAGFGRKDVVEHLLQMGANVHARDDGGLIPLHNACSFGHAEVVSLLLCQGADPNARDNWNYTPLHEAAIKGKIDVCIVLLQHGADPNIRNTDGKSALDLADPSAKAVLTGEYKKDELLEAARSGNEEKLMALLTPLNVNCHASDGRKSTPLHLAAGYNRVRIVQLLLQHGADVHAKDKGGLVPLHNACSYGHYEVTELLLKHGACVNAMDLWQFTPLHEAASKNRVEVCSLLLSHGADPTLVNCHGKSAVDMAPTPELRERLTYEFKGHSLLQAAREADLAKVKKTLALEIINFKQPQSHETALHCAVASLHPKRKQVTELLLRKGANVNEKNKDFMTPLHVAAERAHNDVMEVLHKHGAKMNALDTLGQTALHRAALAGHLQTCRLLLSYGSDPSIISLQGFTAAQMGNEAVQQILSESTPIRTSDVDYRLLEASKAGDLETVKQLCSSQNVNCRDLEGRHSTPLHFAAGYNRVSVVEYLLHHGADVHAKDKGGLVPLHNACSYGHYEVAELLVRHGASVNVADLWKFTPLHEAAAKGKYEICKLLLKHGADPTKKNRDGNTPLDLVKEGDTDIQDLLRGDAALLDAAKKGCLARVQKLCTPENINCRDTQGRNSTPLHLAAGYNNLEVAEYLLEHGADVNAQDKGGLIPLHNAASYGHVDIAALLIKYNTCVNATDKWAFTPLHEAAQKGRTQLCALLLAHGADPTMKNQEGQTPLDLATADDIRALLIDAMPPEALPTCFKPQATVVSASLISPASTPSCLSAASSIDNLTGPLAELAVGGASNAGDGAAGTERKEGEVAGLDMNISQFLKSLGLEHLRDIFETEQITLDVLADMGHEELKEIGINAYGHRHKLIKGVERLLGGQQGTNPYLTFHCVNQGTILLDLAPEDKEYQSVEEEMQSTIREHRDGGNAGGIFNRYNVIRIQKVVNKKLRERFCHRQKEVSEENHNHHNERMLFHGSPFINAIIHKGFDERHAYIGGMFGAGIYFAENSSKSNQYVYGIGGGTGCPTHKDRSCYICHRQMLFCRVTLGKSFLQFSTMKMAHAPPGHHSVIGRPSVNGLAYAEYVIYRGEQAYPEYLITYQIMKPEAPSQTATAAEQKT

PARP8 = target: T2, PARP8 (Homo sapiens, UniProt Q8N3A8); conditions: Figure 5
T2 sequence (Q8N3A8 1-854): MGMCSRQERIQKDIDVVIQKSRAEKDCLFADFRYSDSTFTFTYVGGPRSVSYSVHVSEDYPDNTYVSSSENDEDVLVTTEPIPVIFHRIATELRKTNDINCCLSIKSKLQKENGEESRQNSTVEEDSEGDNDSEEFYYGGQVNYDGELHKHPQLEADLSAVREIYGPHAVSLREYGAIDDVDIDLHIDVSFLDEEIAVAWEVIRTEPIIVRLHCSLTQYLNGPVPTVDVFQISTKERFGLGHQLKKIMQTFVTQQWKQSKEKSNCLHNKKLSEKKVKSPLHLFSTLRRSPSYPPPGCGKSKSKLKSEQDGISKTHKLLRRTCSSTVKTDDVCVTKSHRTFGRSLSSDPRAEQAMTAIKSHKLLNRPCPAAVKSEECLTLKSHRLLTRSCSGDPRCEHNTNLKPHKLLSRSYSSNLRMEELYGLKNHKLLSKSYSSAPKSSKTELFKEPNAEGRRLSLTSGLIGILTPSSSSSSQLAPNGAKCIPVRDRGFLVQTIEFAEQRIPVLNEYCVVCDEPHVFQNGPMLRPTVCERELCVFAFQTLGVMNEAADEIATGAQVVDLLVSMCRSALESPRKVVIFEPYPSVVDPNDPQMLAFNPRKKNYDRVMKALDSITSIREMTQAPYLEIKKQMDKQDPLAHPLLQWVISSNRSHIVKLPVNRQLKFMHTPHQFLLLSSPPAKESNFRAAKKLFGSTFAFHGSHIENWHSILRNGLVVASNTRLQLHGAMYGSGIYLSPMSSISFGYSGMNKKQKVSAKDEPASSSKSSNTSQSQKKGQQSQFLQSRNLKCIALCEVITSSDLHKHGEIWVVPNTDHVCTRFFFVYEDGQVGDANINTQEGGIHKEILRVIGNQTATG

Chain of PARP2 (Q9UGN5 whole entry): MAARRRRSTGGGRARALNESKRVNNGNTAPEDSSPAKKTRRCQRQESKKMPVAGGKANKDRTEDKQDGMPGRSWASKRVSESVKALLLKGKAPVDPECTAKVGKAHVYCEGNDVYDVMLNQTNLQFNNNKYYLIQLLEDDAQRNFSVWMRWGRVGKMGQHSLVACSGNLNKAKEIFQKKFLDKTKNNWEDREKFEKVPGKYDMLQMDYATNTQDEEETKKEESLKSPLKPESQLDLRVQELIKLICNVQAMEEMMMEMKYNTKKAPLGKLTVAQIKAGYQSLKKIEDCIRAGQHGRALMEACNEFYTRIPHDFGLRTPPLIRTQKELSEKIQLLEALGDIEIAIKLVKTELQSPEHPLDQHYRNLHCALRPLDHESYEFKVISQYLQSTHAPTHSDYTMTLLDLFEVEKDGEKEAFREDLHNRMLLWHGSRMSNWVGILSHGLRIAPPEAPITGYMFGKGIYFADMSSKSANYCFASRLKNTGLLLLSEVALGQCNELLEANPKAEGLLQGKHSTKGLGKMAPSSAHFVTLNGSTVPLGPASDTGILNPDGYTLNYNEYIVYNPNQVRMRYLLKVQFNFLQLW

PARP2 inhibition (PARP2): complete inhibition
TNKS1 inhibition (TNKS1 (PARP5A)): substantially inhibited
PARP8 inhibition (PARP8): did not interfere
Structure (SMILES): NC(=O)c1cccc2c1O/C(=C\c1ccc(O)cc1)C(=O)N2 [Compound 49, (Z)-2-(4-Hydroxybenzylidene)-3-oxo-3,4-dihydro-2H-benzo[b][1,4]oxazine-8-carboxamide]
